The values that follow come from BindingDB's records for patent US12187709 (Genentech, 2025).

Experiment [1] addresses T1, E3 ubiquitin-protein ligase CBL (Homo sapiens, UniProt P22681). In words: Cbl-b and C-Cbl LCK Ub TR-FRET Assay. On the procedure:
6 μL of detection mixture was added to all wells and briefly centrifuged before incubating for 20 min at room temperature. […] IC50 was generated using no LCK as the low control and DMSO as the high control.
In general terms: TR-FRET usually uses a lanthanide donor and a delayed reading to cut background.

In experiment [2] the target is T1, E3 ubiquitin-protein ligase CBL. In words: Multi-Point Chaser SPR Assay Variation. How it is done: (§1) Table 4: Chaser assay utilize a single cycle kinetics SPR experiment with a contact time of 120 seconds, a flow rate of 50 μl/min and a dissociation time of 450 seconds. […] The kd is measured independently by determining the percentage unoccupied compound binding site over time by measuring the binding of a chaser compound measured by SPR.Chaser binding was measured by a multicycle kinetics SPR experiment using a contact time of 20 seconds, a flow rate of 30 μl/min, and a dissociation time of 120 seconds. […] The % compound bound at a given time was determined by comparison to a single injection of chaser preceding the single cycle kinetics titration defined below.% Compound Bound=(1−(RUT/RUT0))*100

Experiment [3] addresses E3 ubiquitin-protein ligase CBL-B (Homo sapiens, UniProt Q13191). In words: Multi-Point Chaser SPR Assay Variation. How it is done:
as §1

The structures appear in SMILES notation. Bounds are passed on as bounds.

Chain of E3 ubiquitin-protein ligase CBL-B (Q13191 whole entry): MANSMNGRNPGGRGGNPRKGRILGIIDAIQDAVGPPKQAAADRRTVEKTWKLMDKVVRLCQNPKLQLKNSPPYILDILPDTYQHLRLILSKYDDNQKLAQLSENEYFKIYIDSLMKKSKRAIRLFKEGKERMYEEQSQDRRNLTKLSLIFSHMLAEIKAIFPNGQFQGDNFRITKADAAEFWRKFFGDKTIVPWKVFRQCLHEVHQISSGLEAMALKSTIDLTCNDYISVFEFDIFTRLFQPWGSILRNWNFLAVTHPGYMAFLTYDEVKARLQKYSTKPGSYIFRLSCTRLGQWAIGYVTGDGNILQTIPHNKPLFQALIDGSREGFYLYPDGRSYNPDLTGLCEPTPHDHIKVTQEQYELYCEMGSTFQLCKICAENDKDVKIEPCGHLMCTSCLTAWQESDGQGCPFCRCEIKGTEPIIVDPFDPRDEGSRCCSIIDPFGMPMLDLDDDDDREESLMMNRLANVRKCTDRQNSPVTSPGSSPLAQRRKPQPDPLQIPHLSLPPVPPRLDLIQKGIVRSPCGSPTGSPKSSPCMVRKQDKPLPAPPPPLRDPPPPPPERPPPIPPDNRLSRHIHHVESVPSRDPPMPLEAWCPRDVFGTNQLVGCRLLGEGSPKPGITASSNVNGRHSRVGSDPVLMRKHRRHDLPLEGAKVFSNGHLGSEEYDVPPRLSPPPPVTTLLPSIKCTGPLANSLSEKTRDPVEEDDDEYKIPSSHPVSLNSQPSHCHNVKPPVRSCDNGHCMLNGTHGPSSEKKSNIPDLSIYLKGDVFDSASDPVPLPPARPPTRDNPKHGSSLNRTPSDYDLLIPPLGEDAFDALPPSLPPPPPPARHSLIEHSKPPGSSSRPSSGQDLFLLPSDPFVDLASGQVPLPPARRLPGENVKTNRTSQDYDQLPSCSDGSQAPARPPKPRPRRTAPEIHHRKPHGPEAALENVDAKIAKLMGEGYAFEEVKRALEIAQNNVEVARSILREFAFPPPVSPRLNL

On to `CO[C@@](c1cccc(N2Cc3c(cc(CNC4(C)CCC4)cc3C(F)(F)F)C2=O)c1)(c1nncn1C)C1CCC1` (single isomer, unassigned) [US12187709, Compound 118], for which the IC50 (usually the midpoint of a concentration-inhibition curve) in experiment [1] was at least 20000 nM.

`Cn1cnnc1[C@]1(c2cc(OC3CCCC3)nc(N3Cc4c(cc(CNC5(C)CCC5)cc4C(F)(F)F)C3=O)c2)C[C@@H](C)C1` [US12187709, Compound 55]: 9.4 nM corresponded to half-maximal inhibition in experiment [1] (IC50).

The compound `Cn1cnnc1[C@]1(c2cc(NC3CCCCC3)nc(N3Cc4c(cc(CNC5(C)CCC5)cc4C(F)(F)F)C3=O)c2)C[C@H](C)C1` [US12187709, Compound 51] yielded a half-inhibitory concentration (IC50) in experiment [1] of 61 nM.

Consider `Cn1cnnc1[C@]1(c2cc(NC3CCCC3)nc(N3Cc4c(cc(CNC5(C)CCC5)cc4C(F)(F)F)C3=O)c2)C[C@H](C)C1` [US12187709, Compound 53], for which the Kd (usually a measure of binding affinity in units of concentration) in experiment [2] was 6.5 nM; in experiment [3], 0.7 nM. For the same compound, half-maximal inhibition in experiment [1] (IC50) was put at 6.3 nM.

Consider `Cn1cnnc1[C@]1(c2cc(NC3CCCCC3)nc(N3Cc4c(cc(CNC5(C)CCC5)cc4C(F)(F)F)C3=O)c2)C[C@@H](C)C1` [US12187709, Compound 50], for which the Kd in experiment [2] worked out at 20 nM; in experiment [3], 6.5 nM. Besides, the IC50 in experiment [1] was 53 nM.

On to `Cn1cnnc1[C@]1(c2cc(NC3CCCC3)nc(N3Cc4c(cc(CNC5(C)CCC5)cc4C(F)(F)F)C3=O)c2)C[C@@H](C)C1` [US12187709, Compound 52], for which the Kd is 11 nM in experiment [2] and 0.95 nM in experiment [3]. The compound also came in with a half-inhibitory concentration (IC50) in experiment [1] of 9.4 nM.

Take `Cn1cnnc1[C@]1(c2cc(OC3CCCC3)nc(N3Cc4c(cc(CNC5(C)CCC5)cc4C(F)(F)F)C3=O)c2)C[C@H](C)C1` [US12187709, Compound 54]: the Kd in experiment [2] is 15 nM; in experiment [3] it was 1.3 nM. Besides, the IC50 in experiment [1] is 115 nM.

As for `CC(=O)N1CC(c2cccc(N3Cc4c(cc(CNC5(C)CCC5)cc4C(F)(F)F)C3=O)c2)(c2nncn2C)C1` [US12187709, Compound 112], the concentration for half-maximal inhibition (IC50) in experiment [1] is at least 20000 nM.
